Data on ten compounds can be found in PubChem BioAssay (NCI).

Where “and” joins values, the source holds several entries; their conditions need not be identical. Equal values may be shown once.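 Test compounds were applied to cells in 96-well plates for 48 hours at 5 doses. The concentration for 50% growth inhibition is given as GI50. TGI is the concentration that stops growth completely.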

Test systems include ACHN renal; EKVX NSCLC; IGROV1 ovarian; MDA-MB-231 breast; MDA-MB-435; MOLT-4 leukemia; NCI-H522 lung; RPMI-8226 leukemia; KM20L2 colon; LXFL 529 NSCLC.
Experiment in all cases: growth of human tumour cells (NCI), 48 h

On to `COc1ccc(-c2nc3sccn3c2-c2ccnc(NCCNS(=O)(=O)c3ccc(C(F)(F)F)cc3)n2)cc1`, for which the GI50 is 2.58 µM with ACHN renal; 4.04 µM in the test on EKVX NSCLC; 3.18 µM in the test on IGROV1 ovarian; 1.22 µM in the test with MDA-MB-231 breast; 1.44 µM in the test on MDA-MB-435; 0.503 µM with MOLT-4 leukemia. The figures for the GI50 in the test with NCI-H522 lung and in the test on RPMI-8226 leukemia were 2.81 µM and 0.626 µM, respectively. For the same compound, the TGI in the test with ACHN renal was > 100 µM; in the test with EKVX NSCLC it was > 100 µM; in the test with IGROV1 ovarian it was > 100 µM; in the test with MDA-MB-231 breast, 42.5 µM; in the test with MDA-MB-435, 5.88 µM; with MOLT-4 leukemia it was > 100 µM. The TGI is 17 µM in the test with NCI-H522 lung and 5.53 µM in the test on RPMI-8226 leukemia.
As for `CC(C)[C@@]12C[C@@H](OC(=O)COC(=O)c3ccccc3)[C@@](C)(O1)[C@@H]1CC[C@@H](C)[C@H]1[C@@H]2OC(=O)/C=C/c1ccccc1`, the GI50 in the test on ACHN renal was 0.0469 µM; with EKVX NSCLC, > 100 µM; with IGROV1 ovarian, > 100 µM; in the test with MDA-MB-231 breast, > 100 µM; with MDA-MB-435, > 100 µM; in the test on MOLT-4 leukemia it was > 100 µM. Also, the GI50 in the test with NCI-H522 lung is > 100 µM; with RPMI-8226 leukemia it was 82.1 µM. For the same compound, the TGI with EKVX NSCLC, with IGROV1 ovarian, in the test on MDA-MB-231 breast, in the test on MDA-MB-435, in the test with MOLT-4 leukemia and with NCI-H522 lung was > 100 µM in each case. Further, the TGI in the test with RPMI-8226 leukemia is > 100 µM.
As to `CCOC(=O)C(C(=O)OCC)=C1C=C(c2ccccc2)c2ccccc21`, the TGI in the test on ACHN renal, in the test on EKVX NSCLC, in the test on IGROV1 ovarian, in the test with KM20L2 colon, in the test on LXFL 529 NSCLC and in the test on MOLT-4 leukemia was > 100 µM in each case. The compound further showed a TGI in the test on RPMI-8226 leukemia of 89.4 µM.
For the compound `CC(=O)[O-].CC(=O)[O-].O=C([CH-]C(=O)c1ccccc1)c1ccccc1.[Nd+3].[OH3+]`, the GI50 in the test with ACHN renal was 31.3 µM; in the test with EKVX NSCLC it was 24.5 µM; with IGROV1 ovarian it was 28.5 µM; in the test on KM20L2 colon it was 30.5 µM; in the test with MOLT-4 leukemia, 10.6 µM; in the test on NCI-H522 lung, 13.2 µM. In addition, in the test with RPMI-8226 leukemia, the GI50 is 22.8 µM. The TGI in the test on ACHN renal is > 100 µM; with EKVX NSCLC it was 76.5 µM; in the test with IGROV1 ovarian, > 100 µM; in the test with KM20L2 colon, > 100 µM; with MOLT-4 leukemia, > 100 µM; with NCI-H522 lung, 43.6 µM. Moreover, the TGI in the test on RPMI-8226 leukemia is > 100 µM.
In the case of `Cn1c2c(c3ccccc31)CCN1C[C@@H]3CCCC[C@H]3C[C@@H]21`, the GI50 with ACHN renal was 4.32 µM; in the test on EKVX NSCLC, 5.57 µM; with IGROV1 ovarian it was 3.45 µM; with MDA-MB-231 breast, 2.88 µM; in the test on MDA-MB-435 it was 1.56 µM; with MOLT-4 leukemia, 5.55 µM. For the same compound, the figures for the GI50 with NCI-H522 lung and with RPMI-8226 leukemia were 1.74 µM and 3.06 µM, respectively. Further, the TGI in the test on ACHN renal is > 100 µM; in the test with EKVX NSCLC, > 100 µM; in the test on IGROV1 ovarian it was > 54.6 µM; with MDA-MB-231 breast it was 8.66 µM; in the test on MDA-MB-435, > 20.6 µM; with MOLT-4 leukemia it was > 100 µM. The values for the TGI in the test on NCI-H522 lung and in the test with RPMI-8226 leukemia were 4.44 µM and > 26.3 µM, respectively.
As for `CC[C@]12C=CCN3CC[C@]4(C(=C(C(=O)OC)C1)Nc1cc5c(cc14)[C@@H]1[C@H](O5)[C@@H](O)[C@@]4(CC)CC(C(=O)OC)=C5Nc6ccccc6[C@@]56CCN1[C@@H]46)[C@@H]32`, the GI50 in the test on ACHN renal is 0.189 µM and 0.275 µM; in the test with EKVX NSCLC, 0.927 µM and 0.748 µM; in the test with IGROV1 ovarian, 0.156 µM and 0.253 µM; in the test with MDA-MB-231 breast, 0.155 µM and 0.395 µM; in the test on MDA-MB-435, 0.395 µM and 0.309 µM; in the test with MOLT-4 leukemia, 0.432 µM and 0.338 µM. The GI50 in the test with NCI-H522 lung was 0.202 µM and 0.312 µM; in the test on RPMI-8226 leukemia, 0.141 µM and 0.234 µM. For the same compound, the TGI with ACHN renal is 2.86 µM and 1.79 µM; in the test on EKVX NSCLC it was 25 µM and 33.8 µM; in the test with IGROV1 ovarian it was 3.99 µM and 14 µM; in the test with MDA-MB-231 breast, 10.2 µM and 28.9 µM; with MDA-MB-435, 25 µM and 10.8 µM; with MOLT-4 leukemia, 25 µM and > 100 µM. In addition, the TGI with NCI-H522 lung is 2.75 µM and 5.33 µM; in the test with RPMI-8226 leukemia, 2.49 µM and 1.5 µM.
Consider `O=C(c1ccccc1)n1cc(/C=C/[N+](=O)[O-])c2ccccc21`, for which the TGI in the test with ACHN renal is > 100 µM; in the test on EKVX NSCLC it was > 100 µM; in the test with IGROV1 ovarian, 54.7 µM; with LXFL 529 NSCLC it was 35.1 µM; in the test with MOLT-4 leukemia it was 40.3 µM; in the test with NCI-H522 lung it was 28.8 µM. Besides, the TGI with RPMI-8226 leukemia was 39.9 µM.
With `CC(=O)OCc1nnn2c1C(OC(C)=O)CC2` (configuration not stated), the TGI with ACHN renal, in the test on EKVX NSCLC, in the test on IGROV1 ovarian, in the test on KM20L2 colon, in the test on LXFL 529 NSCLC and in the test with MOLT-4 leukemia was > 100 µM each time. In addition, the TGI in the test on NCI-H522 lung and with RPMI-8226 leukemia was > 100 µM each time.
Turning to `C[C@@H](NC1CCCC[C@@H]1O)c1ccccc1` (some centres not stated), the TGI with ACHN renal, in the test on EKVX NSCLC, in the test on IGROV1 ovarian, in the test with KM20L2 colon, in the test with LXFL 529 NSCLC and with MOLT-4 leukemia was > 100 µM each time. Besides, in the test on RPMI-8226 leukemia, the TGI is > 100 µM.
For the compound `Cc1cc(S(=O)(=O)Nc2nc3ccccc3c(=O)n2Cc2ccco2)c(S)cc1Cl`, the GI50 was 49.8 µM in the test on ACHN renal; 22.8 µM with EKVX NSCLC; 36.9 µM in the test with IGROV1 ovarian; 38.5 µM with MDA-MB-231 breast; 41.2 µM in the test on MDA-MB-435; 18.6 µM with MOLT-4 leukemia. For the same compound, the GI50 in the test with NCI-H522 lung is 37.4 µM; in the test on RPMI-8226 leukemia it was 27 µM. Moreover, the TGI with ACHN renal is > 100 µM; in the test on EKVX NSCLC, 70.6 µM; with IGROV1 ovarian it was > 100 µM; with MDA-MB-231 breast, > 100 µM; in the test on MDA-MB-435 it was > 100 µM; with MOLT-4 leukemia, > 100 µM. Also, the TGI in the test on NCI-H522 lung and with RPMI-8226 leukemia was > 100 µM in each case.
